The values that follow come from patent US11845803B2, “Combination therapies for treatment of BCMA-related cancers and autoimmune disorders” (Fred Hutchinson Cancer Center, priority 2017, dated 2023).

Assay [1] relates to BCMA-specific T-ChARM T cells co-cultured with K562/BCMA+ cells. The assay is described as follows: Effect of exogenous soluble BCMA / BCMA-Fc on BCMA-specific T-ChARM T cell function. It counts as cell-based, human. The procedure: (H) IFN-γ production by BCMA-specific T-ChARM T cells in the presence of exogenous soluble BCMA. sBCMA was added to co-cultures of T cells expressing a BCMA-specific T-ChARM and K562 cells transduced with a polynucleotide encoding full-length BCMA (K562/BCMA^+).
(I) Data from another dose-titration experiment showing the effect of sBCMA on IFN-γ production by BCMA-specific T-ChARM T cells recognizing K562 BCMA^+ cells, which included adding sBCMA to culture at another, higher concentration (5000 ng/mL).
(N) Flow cytometry data showing IFN-γ production (y-axis) and CD4 expression (x-axis) by T cells expressing either a C113ST-ChARM (“C113ST”) of this disclosure or a control anti-CD19 CAR (“[…]”), in co-culture with target-expressing K562 cells and administered the BCMA-Fc fusion protein (left panels: 0 ng/ml BCMA-Fc; right panels: 1000 ng/ml BCMA-Fc.
(O) Dose titration showing IFN-γ release by CAR T cells in response to target cell lines as indicated in the presence or absence of exogenous recombinant BCMA (BCMA-Fc fusion). FMC63 (anti-CD19) vs. K562 CD19^+ (control; downward-facing triangle); C113ST T-ChARM T cells vs. RPMI 8226 (upward-facing triangle), U266 (square), and K562 BCMA^+ cells (circle). Data is representative of 2 independent experiments. Bars represent mean+SEM. P-value=<0.05, as determined by one-way ANOVA with post-test. MFI=mean fluorescence intensity.
(P) IFN-γ production (normalized Mean Fluorescence Intensity, MFI) by the T cells shown in FIG. 2O in co-culture with indicated antigen-expressing cells and in the presence or absence of BCMA-Fc (x-axis).
(Q) Cytolytic activity of CD8^+ C113ST T-ChARM T cells against K562 BCMA^+ target cells and of FMC63 CAR-T cells against K562 CD19^+ target cells at varying concentrations of recombinant BCMA, analyzed by a 4 h CRA at E:T ratio of 10:1. Data is representative of 2 independent experiments. Bars represent mean+SEM. P-value=<0.05, as determined by one way ANOVA with post-test. MFI=mean fluorescence intensity.
The effect of sBCMA was examined as well by adding sBCMA to co-cultures of T cells expressing a BCMA-specific T-ChARM and K562 cells transduced with a polynucleotide encoding full-length BCMA (K562/BCMA^+).

The subject of another assay is C113ST T-ChARM T cells. The assay is described as follows: sBCMA binding to T-ChARM T cells (BCMA-Fc-APC staining after incubation with recombinant BCMA). The note with it: increasing levels of recombinant BCMA. More on the design: species or system human. The procedure:
(L) sBCMA binding to C113ST-ChARM T cells of this disclosure. T cells were incubated with the indicated levels of recombinant sBCMA (right side of diagram) and then stained with a BCMA-Fc fusion that was conjugated to APC.
To examine whether high levels of sBCMA might inhibit the activity of BCMA-specific T-ChARM T cells, patient bone marrow (BM) sera were examined for sBCMA levels. […] To test whether sBCMA would bind to the T-ChARM T cells, the T cells were incubated with increasing levels of recombinant BCMA and then stained using BCMA-Fc conjugated to APC.

No end group written: not given here.

In the case of “BCMA-Fc: recombinant BCMA-Fc fusion protein (MLQMAGQCSQNEYFDSLLHACIPCQLRCSSNTPPLTCQRYCNASVTNSVKGTNA; not fully specified; cysteine pairing not given here; also: fused to dimerising Fc or GST (not given here))”, the “recognition (IFN-γ production and CD4 expression) by BCMA-targeting T-ChARM T cells” value in assay [1] (BCMA-Fc added to co-cultures) was “much-reduced recognition”. Moreover, the “recognition by control anti-CD19 CAR T cells” value in assay [1] (BCMA-Fc added, K562 cells expressing CD19) is listed as “but not by control anti-CD19 CAR T cells”. Also, the “dose dependence of effect on BCMA T-ChARM T cells” value in assay [1] (BCMA-Fc titration) is reported as “dose-dependent”.

“sBCMA: exogenous soluble / recombinant BCMA not fused to Fc (MLQMAGQCSQNEYFDSLLHACIPCQLRCSSNTPPLTCQRYCNASVTNSVKGTNA)”: the “BCMA-Fc-APC staining of T-ChARM T cells” value in the assay with C113ST T-ChARM T cells was “staining decreased”. Further, the “T-ChARM T cell effector function (IFN-γ release)” value in assay [1] (exogenous sBCMA added to co-culture with K562/BCMA+) is reported as “dose-dependent inhibition”. Also, the “IFN-γ production by T-ChARM T cells” value in assay [1] (recombinant BCMA not fused to Fc) was “inhibited IFN-γ production in a dose-dependent fashion”. For the same substance, the “lysis of K562 BCMA+ cells by T-ChARM T cells” value in assay [1] (recombinant BCMA not fused to Fc, 4 h CRA, E:T 10:1) is “did not inhibit lysis”.
